Drawing on US20230011869A1 (Hoffmann-La Roche Inc., priority 2018, published 2023), this text covers IC90 for 20 compounds.

Structures can show the parent of a compound that is named as a salt.

The first experiment deals with Acinetobacter baumannii ATCC17978. The experiment can be described thus: Antimicrobial susceptibility testing: 90% growth inhibitory concentration (IC90) determination, Iso-Sensitest broth. The experiment is classed as cell-based. The settings on record: 90% growth inhibitory concentration, Acinetobacter baumannii ATCC17978, Iso-Sensitest broth, OD 600 nm over 16 h; read-out: ATCC17978 IC90. The procedure, abridged:
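A. baumannii ATCC17978 grown in Iso-Sensitest broth across 10 compound concentrations at 35±2 °C.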
As to `N#CCOc1ccc(-c2cnc3c(Nc4ccc(C(=O)N5CCC(C(=O)OCC6CNCCN6)CC5)c(Cl)c4)nccn23)c(F)c1F` (centres unmarked) [Example 98, piperazin-2-ylmethyl 1-[2-chloro-4-[[3-[4-(cyanomethoxy)-2,3-difluoro-phenyl]imidazo[1,2-a]pyrazin-8-yl]amino]benzoyl]piperidine-4-carboxylate trifluoroacetate], the IC90 is 0.085 µM. With `COc1ccc(-c2cnc3c(Nc4ccc(C(=O)N5CCC(C(=O)NCC(N)CO)CC5)c(C)c4)nccn23)cc1F` (centres unmarked) [Example 101, N-(2-amino-3-hydroxypropyl)-1-(4-((3-(3-fluoro-4-methoxyphenyl)imidazo[1,2-a]pyrazin-8-yl)amino)-2-methylbenzoyl)piperidine-4-carboxamide hydrochloride], the IC90 turned out to be 0.14 µM.

With `CNCC(=O)NCC1CCN(C(=O)c2ccc(Nc3nccn4c(-c5ccc(OCC#N)c(F)c5F)cnc34)cc2C)CC1` [Example 102, N-[[1-[4-[[3-[4-(cyanomethoxy)-2,3-difluoro-phenyl]imidazo[1,2-a]pyrazin-8-yl]amino]-2-methyl-benzoyl]-4-piperidyl]methyl]-2-(methylamino)acetamide], the IC90 was 0.14 µM. For `COc1ccc(-c2cnc3c(Nc4ccc(C(=O)N5CCC(CNC(C)=O)CC5)c(C)c4)nccn23)cc1` [Example 103, N-((1-(4-((3-(4-methoxyphenyl)imidazo[1,2-a]pyrazin-8-yl)amino)-2-methylbenzoyl)piperidin-4-yl)methyl)acetamide], the IC90 is 0.15 µM. Take `Cc1cc(Nc2nccn3c(-c4ccc(OC(C)(C)C#N)c(F)c4F)cnc23)ccc1C(=O)N1CCC(CN)CC1` [Example 105, 2-[4-[8-[4-[4-(aminomethyl)piperidine-1-carbonyl]-3-methyl-anilino]imidazo[1,2-a]pyrazin-3-yl]-2,3-difluoro-phenoxy]-2-methyl-propanenitrile; formic acid]: the IC90 stood at 3.6 µM. In the case of `COc1cc(F)c(-c2cnc3c(Nc4ccc(C(=O)N5CCC(CN)CC5)c(C)c4)nccn23)cc1F` [Example 106, (4-(aminomethyl)piperidin-1-yl)(4-((3-(2,5-difluoro-4-methoxyphenyl)imidazo[1,2-a]pyrazin-8-yl)amino)-2-methylphenyl)methanone], the IC90 was found to be 0.25 µM. As to `COc1cc(F)c(-c2cnc3c(Nc4ccc(C(=O)N5CCC(CN)CC5)c(C)c4)nccn23)cc1Cl` [Example 107, (4-(aminomethyl)piperidin-1-yl)(4-((3-(5-chloro-2-fluoro-4-methoxyphenyl)imidazo[1,2-a]pyrazin-8-yl)amino)-2-methylphenyl)methanone], the IC90 is 0.29 µM. As for `Cc1cc(Nc2nccn3c(-c4ccc(Cl)cc4Cl)cnc23)ccc1C(=O)N1CCC(CN)CC1` [Example 108, (4-(aminomethyl)piperidin-1-yl)(4-((3-(2,4-dichlorophenyl)imidazo[1,2-a]pyrazin-8-yl)amino)-2-methylphenyl)methanone], the IC90 turned out to be 1.3 µM. Same read-out and setting: the figure for `COc1ccc(-c2cnc3c(Nc4ccc(C(=O)N5CCC(CN)CC5)c(C)c4)nccn23)c(Cl)c1` [Example 109, (4-(aminomethyl)piperidin-1-yl)(4-((3-(2-chloro-4-methoxyphenyl)imidazo[1,2-a]pyrazin-8-yl)amino)-2-methylphenyl)methanone] is 0.51 µM. As to `CCOc1ccc(-c2cnc3c(Nc4ccc(C(=O)N5CCC(CN)CC5)c(C)c4)nccn23)c(F)c1Cl` [Example 110, (4-(aminomethyl)piperidin-1-yl)(4-((3-(3-chloro-4-ethoxy-2-fluorophenyl)imidazo[1,2-a]pyrazin-8-yl)amino)-2-methylphenyl)methanone formate], the IC90 was found to be 0.42 µM. Take `Cc1cc(Nc2nccn3c(-c4cc(F)c(F)c(F)c4)cnc23)ccc1C(=O)N1CCC(CN)CC1` [Example 111, (4-(aminomethyl)piperidin-1-yl)(2-methyl-4-((3-(3,4,5-trifluorophenyl)imidazo[1,2-a]pyrazin-8-yl)amino)phenyl)methanone]: the IC90 is 4.1 µM. In the case of `CNCCNC(=O)C1CCN(C(=O)c2ccc(Nc3nccn4c(-c5ccc(OC)c(Cl)c5)cnc34)cc2C)CC1` [Example 112, 1-(4-((3-(3-chloro-4-methoxyphenyl)imidazo[1,2-a]pyrazin-8-yl)amino)-2-methylbenzoyl)-N-(2-(methylamino)ethyl)piperidine-4-carboxamide hydrochloride], the IC90 came to 0.18 µM.

As for `COc1ccc(-c2cnc3c(Nc4ccc(C(=O)N5CCC(CN)CC5)c(C)c4)nccn23)c(Cl)c1Cl` [Example 113, [4-(aminomethyl)-1-piperidyl]-[4-[[3-(2,3-dichloro-4-methoxy-phenyl)imidazo[1,2-a]pyrazin-8-yl]amino]-2-methyl-phenyl]methanone formate], the IC90 came to 0.28 µM. For `Cc1cc(Nc2nccn3c(-c4ccc(OCC5CC5C#N)c(F)c4F)cnc23)ccc1C(=O)N1CCC(CN)CC1` (centres unmarked) [Example 114, 2-[[4-[8-[4-[4-(aminomethyl)piperidine-1-carbonyl]-3-methyl-anilino]imidazo[1,2-a]pyrazin-3-yl]-2,3-difluoro-phenoxy]methyl]cyclopropanecarbonitrile formate], the IC90 is 0.41 µM.

Turning to `Cc1cc(Nc2nccn3c(-c4ccc(OC5(C#N)CC5)c(F)c4F)cnc23)ccc1C(=O)N1CCC(CN)CC1` [Example 115, 1-[4-[8-[4-[4-(aminomethyl)piperidine-1-carbonyl]-3-methyl-anilino]imidazo[1,2-a]pyrazin-3-yl]-2,3-difluoro-phenoxy]cyclopropanecarbonitrile formate], the IC90 was determined as 0.4 µM.

With `CSc1ccc(-c2cnc3c(Nc4ccc(C(=O)N5CCC(CN)CC5)c(C)c4)nccn23)cc1F` [Example 116, [4-(aminomethyl)-1-piperidyl]-[4-[[3-(3-fluoro-4-methylsulfanyl-phenyl)imidazo[1,2-a]pyrazin-8-yl]amino]-2-methyl-phenyl]methanone formate], the IC90 was 0.5 µM. With `Cc1cc(Nc2nccn3c(-c4ccc(OC5CC5)c(Cl)c4)cnc23)ccc1C(=O)N1CCC(CN)CC1` [Example 117, [4-(aminomethyl)-1-piperidyl]-[4-[[3-[3-chloro-4-(cyclopropoxy)phenyl]imidazo[1,2-a]pyrazin-8-yl]amino]-2-methyl-phenyl]methanone formate], the IC90 was found to be 0.54 µM. The same measure, in the same setting: the figure for `Cc1cc(Nc2nccn3c(-c4ccc(OCC5CC5)c(F)c4)cnc23)ccc1C(=O)N1CCC(CN)CC1` [Example 118, (4-(aminomethyl)piperidin-1-yl)(4-((3-(4-(cyclopropylmethoxy)-3-fluorophenyl)imidazo[1,2-a]pyrazin-8-yl)amino)-2-methylphenyl)methanone] is 0.94 µM; for `Cc1cc(Nc2nccn3c(-c4ccc(OC(C)C#N)c(F)c4F)cnc23)ccc1C(=O)N1CCC(CN)CC1` (centres unmarked) [Example 119, 2-[4-[8-[4-[4-(aminomethyl)piperidine-1-carbonyl]-3-methyl-anilino]imidazo[1,2-a]pyrazin-3-yl]-2,3-difluoro-phenoxy]propanenitrile;2,2,2-trifluoroacetic acid] it is 0.4 µM.

The experiment is the same for the next values; noted with them: Acinetobacter baumannii, ATCC17978, 16 h, read-out: ATCC17978 IC90, 90% growth inhibitory concentration, Acinetobacter baumannii ATCC17978, Iso-Sensitest broth, OD 600 nm over 16 h.
Turning to `COc1ccc(-c2cnc3c(Nc4ccc(C(=O)N5CCC(CN)CC5)c(C)c4)nccn23)c(Cl)c1F` [Example 104, [4-(aminomethyl)-1-piperidyl]-[4-[[3-(2-chloro-3-fluoro-4-methoxy-phenyl)imidazo[1,2-a]pyrazin-8-yl]amino]-2-methyl-phenyl]methanone hydrochloride], the IC90 is 0.18 µM.
